Laboratory results: patent US12662491B2 (Redona Therapeutics, Inc., priority 2020, dated 2026)
Where two headings read alike, the source gives them in different places.

Target: T1, Zcchc11 enzyme (Homo sapiens, UniProt Q5TAX3)
T1 construct: made in house; host or cells: HEK293 cells (Zcchc11); E. coli Rosetta II (LIN28A)
T1 sequence (Q5TAX3 212-1420): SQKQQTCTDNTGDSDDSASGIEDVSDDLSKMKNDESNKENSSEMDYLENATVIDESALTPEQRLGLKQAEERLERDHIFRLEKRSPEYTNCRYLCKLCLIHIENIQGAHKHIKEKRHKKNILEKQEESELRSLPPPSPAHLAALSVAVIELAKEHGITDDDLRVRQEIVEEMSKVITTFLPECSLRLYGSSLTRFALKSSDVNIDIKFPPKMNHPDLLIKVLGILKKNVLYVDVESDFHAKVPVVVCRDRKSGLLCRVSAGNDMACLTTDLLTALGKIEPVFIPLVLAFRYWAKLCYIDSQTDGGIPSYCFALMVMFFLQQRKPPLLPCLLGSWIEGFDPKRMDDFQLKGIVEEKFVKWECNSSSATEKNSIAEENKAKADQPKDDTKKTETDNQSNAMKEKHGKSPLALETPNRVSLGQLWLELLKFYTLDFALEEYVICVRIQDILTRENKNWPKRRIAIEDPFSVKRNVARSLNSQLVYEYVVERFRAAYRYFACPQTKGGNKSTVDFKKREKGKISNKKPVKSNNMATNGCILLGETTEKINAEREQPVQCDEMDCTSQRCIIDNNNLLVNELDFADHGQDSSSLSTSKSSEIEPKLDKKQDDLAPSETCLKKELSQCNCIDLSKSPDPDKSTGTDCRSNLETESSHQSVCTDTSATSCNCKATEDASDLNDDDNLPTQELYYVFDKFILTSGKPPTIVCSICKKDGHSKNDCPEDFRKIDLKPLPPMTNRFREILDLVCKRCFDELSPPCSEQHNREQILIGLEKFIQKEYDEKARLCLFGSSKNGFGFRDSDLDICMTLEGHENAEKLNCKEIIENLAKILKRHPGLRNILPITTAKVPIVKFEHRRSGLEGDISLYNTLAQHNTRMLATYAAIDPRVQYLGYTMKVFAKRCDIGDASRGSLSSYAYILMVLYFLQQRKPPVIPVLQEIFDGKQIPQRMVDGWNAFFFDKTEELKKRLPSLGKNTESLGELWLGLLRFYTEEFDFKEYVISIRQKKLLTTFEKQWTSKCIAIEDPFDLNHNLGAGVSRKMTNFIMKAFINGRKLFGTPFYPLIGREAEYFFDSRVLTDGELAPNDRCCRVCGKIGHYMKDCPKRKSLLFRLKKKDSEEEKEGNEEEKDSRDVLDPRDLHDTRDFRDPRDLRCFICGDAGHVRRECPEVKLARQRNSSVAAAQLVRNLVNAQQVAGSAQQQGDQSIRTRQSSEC
Assay: TUTase assay (Zcchc11 assay, Lin28a-dependent polyuridylation of pre-let-7)
Assay type: biochemical
Conditions: read-out: Potency Lin28a-dep Z11 IC50
Method in brief: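 LIN28A (10 nM) in pH 7.3 HEPES/KCl/MgCl2/DTT buffer was mixed with serially diluted compound, then 0.2 nM truncated human Zcchc11 and 2 nM labeled pre-let-7 were added for 30 min at room temperature. UTP (5 uM) and quench probe (4 nM) then started the reaction. Linear early rates gave IC50 values.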

[1] = Lin28a-dependent Zcchc11 (Z11) TUTase activity
[2] = Lin28a-dependent Zcchc11 (Z11) TUTase assay

For CN1CC(n2cc(-n3cc(C(=O)O)c(=O)c4cc(Cl)c(N5CCC[C@@H]5COc5ncccc5Cl)cc43)cn2)C1 (racemic) [Compound 175, rac-(R)-6-chloro-7-(2-(((3-chloropyridin-2-yl)oxy)methyl)pyrrolidin-1-yl)-1-(1-(1-methylazetidin-3-yl)-1H-pyrazol-4-yl)-4-oxo-1,4-dihydro-quinoline-3-carboxylic acid], the IC50 [1] was no more than 1000 nM.

In the case of CS(=O)(=O)Nc1ccc(-n2cc(C(=O)O)c(=O)c3cc(Cl)c(N4CCC[C@@H]4COc4ncccc4Cl)cc32)cc1 [Example 427, (R)-6-chloro-7-(2-(((3-chloropyridin-2-yl)oxy)methyl)pyrrolidin-1-yl)-1-(4-(methyl-sulfonamido)phenyl)-4-oxo-1,4-dihydroquinoline-3-carboxylic acid], the IC50 [2] is reported as no more than 1000 nM.

With COc1ccc(F)c(OC[C@H]2C[C@H]3C[C@H]3N2c2cc3c(cc2F)c(=O)c(C(=O)O)cn3-c2ccnc(N)c2)n1 (racemic) [Compound 235, Rac-1-(2-aminopyridin-4-yl)-6-fluoro-7-((1R,3R,5R)-3-(((3-fluoro-6-methoxy-pyridin-2-yl)oxy)methyl)-2-azabicyclo [3.1.0]hexan-2-yl)-4-oxo-1,4-dihydro-quinoline-3-carboxylic acid] the IC50 [1] was no more than 1000 nM.

With Nc1cc(-n2cc(C(=O)O)c(=O)c3cc(Cl)c(N4CCC[C@@H]4COc4ncccc4Cl)cc32)ccn1 [Example 473, (R)-1-(2-aminopyridin-4-yl)-6-chloro-7-(2-(((3-chloropyridin-2-yl)oxy)methyl)pyrrolidin-1-yl)-4-oxo-1,4-dihydroquinoline-3-carboxylic acid] the IC50 [2] was no more than 1000 nM.

For CN(C)C1CN(c2ccc(-n3cc(C(=O)O)c(=O)c4cc(Cl)c(N5CCC[C@@H]5COc5nc(OC6CC6)ccc5Cl)cc43)cn2)C1 [Example 624, (R)-6-chloro-7-(2-(((3-chloro-6-cyclopropoxy-pyridin-2-yl)oxy)methyl)pyrrolidin-1-yl)-1-(6-(3-(dimethylamino)azetidin-1-yl)pyridin-3-yl)-4-oxo-1,4-dihydroquinoline-3-carboxylic acid], the IC50 [2] was no more than 1000 nM.

In the case of CS(=O)(=O)Nc1cnc(-n2cc(C(=O)O)c(=O)c3cc(Cl)c(N4CCC[C@@H]4COc4ncccc4Cl)cc32)cn1 [Example 493, (R)-6-chloro-7-(2-(((3-chloropyridin-2-yl)oxy)methyl)pyrrolidin-1-yl)-1-(5-(methyl-sulfonamido)pyrazin-2-yl)-4-oxo-1,4-dihydroquinoline-3-carboxylic acid], the IC50 [2] is reported as no more than 1000 nM.

COc1ccc(Cl)c(OC[C@H]2CCCN2c2cc3c(cc2Cl)c(=O)c(C(=O)O)cn3-c2ccc(N)nc2)n1 [Compound 294, (R)-1-(6-aminopyridin-3-yl)-6-chloro-7-(2-(((3-chloro-6-methoxy-pyridin-2-yl)oxy)methyl)pyrrolidin-1-yl)-4-oxo-1,4-dihydro-quinoline-3-carboxylic acid] showed an IC50 [1] of no more than 1000 nM.

With COc1ccc(Cl)c(OC[C@H]2C[C@@H](O)CN2c2cc3c(cc2Cl)c(=O)c(C(=O)O)cn3-c2ccc(N3CC(N(C)C)C3)nc2)n1 [Example 641, 6-chloro-7-((2R,4R)-2-(((3-chloro-6-methoxypyridin-2-yl)oxy)methyl)-4-hydroxypyrrolidin-1-yl)-1-(6-(3-(dimethylamino)azetidin-1-yl)pyridin-3-yl)-4-oxo-1,4-dihydroquinoline-3-carboxylic acid] the IC50 [2] was no more than 1000 nM.

O=C(O)c1cn(-c2ccc(CO)cc2)c2cc(N3CCC[C@@H]3COc3ccccn3)c(F)cc2c1=O [Example 372, (R)-6-fluoro-1-(4-(hydroxymethyl)phenyl)-4-oxo-7-(2-((pyridin-2-yloxy)methyl)pyrrolidin-1-yl)-1,4-dihydroquinoline-3-carboxylic acid] gave an IC50 [2] of no more than 1000 nM.

Work on O=C(O)c1cn(C2COC2)c2cc(N3CCC[C@@H]3COc3ccccn3)c(F)cc2c1=O [Example 451, (R)-6-fluoro-1-(oxetan-3-yl)-4-oxo-7-(2-((pyridin-2-yloxy)methyl)pyrrolidin-1-yl)-1,4-dihydroquinoline-3-carboxylic acid] yielded an IC50 [2] of 1000 to 10000 nM.

CN(C)C1CN(c2ccc(-n3cc(C(=O)O)c(=O)c4cc(Cl)c(N5CC(c6cn[nH]c6)C[C@@H]5COc5ncccc5Cl)cc43)cn2)C1 (stereo partly drawn) [Compound 304, 6-chloro-7-((2R)-2-(((3-chloropyridin-2-yl)oxy)methyl)-4-(1H-pyrazol-4-yl)pyrrolidin-1-yl)-1-(6-(3-(dimethyl-amino)azetidin-1-yl)pyridin-3-yl)-4-oxo-1,4-dihydro-quinoline-3-carboxylic acid] was tested, and the IC50 [1] was no more than 1000 nM.

For O=C(O)c1cn(-c2ccc(C3(O)COC3)nc2)c2cc(N3CCC[C@@H]3COc3ncccc3Cl)c(Cl)cc2c1=O [Example 607, (R)-6-chloro-7-(2-(((3-chloropyridin-2-yl)oxy)methyl)pyrrolidin-1-yl)-1-(6-(3-hydroxy-oxetan-3-yl)pyridin-3-yl)-4-oxo-1,4-dihydroquinoline-3-carboxylic acid], the IC50 [2] was no more than 1000 nM.

In the case of CN(C)C1CN(c2ccc(-n3cc(C(=O)O)c(=O)c4cc(Cl)c(N5CC(c6cccnn6)C[C@@H]5COc5ncccc5Cl)cc43)cn2)C1 (mixture of isomers) [Compound 307, rac-6-chloro-7-((2R)-2-(((3-chloropyridin-2-yl)oxy)methyl)-4-(pyridazin-3-yl)pyrrolidin-1-yl)-1-(6-(3-(dimethyl-amino)azetidin-1-yl)pyridin-3-yl)-4-oxo-1,4-dihydro-quinoline-3-carboxylic acid], the IC50 [1] is reported as no more than 1000 nM.

Compound CC(C)[C@@H]1COC(=O)N1C[C@H]1CCCN1c1cc2c(cc1Cl)c(=O)c(C(=O)O)cn2C1(C)CC1 [Compound 141, 6-chloro-7-((R)-2-(((R)-4-isopropyl-2-oxooxazolidin-3-yl)methyl)pyrrolidin-1-yl)-1-(1-methylcyclo-propyl)-4-oxo-1,4-dihydro-quinoline-3-carboxylic acid] has an IC50 [1] greater than 50000 nM.

CN(C)C1CN(c2ccc(-n3cc(C(=O)O)c(=O)c4cc(Cl)c(N5CCC(C)(C)C5COc5nc(OC6CC6)ccc5Cl)cc43)cn2)C1 (stereo not shown) [Compound 272, 6-chloro-7-(2-(((3-chloro-6-cycloprop-oxypyridin-2-yl)oxy)methyl)-3,3-dimethyl-pyrrolidin-1-yl)-1-(6-(3-(dimethyl-amino)azetidin-1-yl)pyridin-3-yl)-4-oxo-1,4-dihydro-quinoline-3-carboxylic acid] showed an IC50 [1] of no more than 1000 nM.

Work on CC1CCN(c2cc3c(cc2Cl)c(=O)c(C(=O)O)cn3-c2ccc(N3CC(N(C)C)C3)nc2)C1COc1nc(N(C)C)ccc1Cl (stereo not shown) [Compound 332, 6-Chloro-7-[2-({[3-chloro-6-(dimethyl-amino)pyridin-2-yl]oxy}methyl)-3-methyl-pyrrolidin-1-yl]-1-{6-[3-(dimethyl-amino)azetidin-1-yl]pyridin-3-yl}-4-oxoquinoline-3-carboxylic acid] yielded an IC50 [1] of no more than 1000 nM.

For O=C(O)c1cn(-c2cnc(OCc3ccccc3)cn2)c2cc(N3CCC[C@@H]3COc3ncccc3Cl)c(Cl)cc2c1=O [Example 503, (R)-1-(5-(benzyloxy)pyrazin-2-yl)-6-chloro-7-(2-(((3-chloropyridin-2-yl)oxy)methyl)pyrrolidin-1-yl)-4-oxo-1,4-dihydroquinoline-3-carboxylic acid], the IC50 [2] was 1000 to 10000 nM.

Work on O=C(O)c1cn(C2CC2)c2c(F)c(N3CCC[C@@H]3COc3cccnn3)c(F)cc2c1=O [Example 29, (R)-1-cyclopropyl-6,8-difluoro-4-oxo-7-(2-((pyridazin-3-yloxy)methyl)pyrrolidin-1-yl)-1,4-dihydroquinoline-3-carboxylic acid] yielded an IC50 (LIN28A 10 nM, Zcchc11 0.2 nM, 5′-fluorescein pre-let-7 miRNA 2 nM, UTP 5 uM, room temperature, 30 minutes pre-incubation) of 1000 to 10000 nM.

CN(C)C1CN(c2ccc(-n3cc(C(=O)O)c(=O)c4cc(Cl)c(N5C[C@@H](F)C[C@@H]5COc5ncccc5Cl)cc43)cn2)C1 [Example 464, 6-chloro-7-((2R,4S)-2-(((3-chloropyridin-2-yl)oxy)methyl)-4-fluoropyrrolidin-1-yl)-1-(6-(3-(dimethylamino)azetidin-1-yl)pyridin-3-yl)-4-oxo-1,4-dihydroquinoline-3-carboxylic acid] gave an IC50 [2] of no more than 1000 nM.
